Data reported in patent US12070447B2, “Parenteral liquid preparation comprising carbamate compound” (SK BIOPHARMACEUTICALS CO., LTD., priority 2016, dated 2024).
In brackets after ≈: the same amount, converted by molar mass. Like-named read-outs stand apart in the source and are kept apart here.

Legend:
[1] = Saturation solubility according to the concentration of cyclodextrin derivative; type: physicochemical; conditions: for solubility at 6 h: aqueous with cosolvent or surfactant or cyclodextrin; for solubility at 6 h / solubility: thermodynamic from solid, water for injection, room temperature; for solubility: water for injection without cyclodextrin, water, 0 % W/V cyclodextrin derivative (Comparative Example, no cyclodextrin)
Method: 2-Hydroxypropyl-β-cyclodextrin (trade name: Cavitron) and sulfobutyl ether-β-cyclodextrin sodium salt (trade name: Captisol) as cyclodextrin compounds were each dissolved in water for injection at various concentrations as shown in Table 1. To this was added an excess amount of carbamic acid (R)-1-(2-chlorophenyl)-2-tetrazol-2-yl)ethyl ester, and the mixture was stirred at room temperature for 6 hours. The mixture was then filtered through a membrane filter to remove insolubles, and the amount of carbamic acid (R)-1-(2-chlorophenyl)-2-tetrazol-2-yl)ethyl ester in the filtrate was measured by high performance liquid chromatography, by which the saturation solubility was calculated. The column used in this experiment was a 75×4.6 mm, 3.5 μm C18 column, and the mobile phase was a mixed solution of 20% by volume of acetonitrile and 80% by volume of 10 mM phosphate buffer (pH 3.0). The flow rate was 2.0 mL/min, and detection was performed at 215 nm.
As a comparative example, the saturation solubility of carbamic acid (R)-1-(2-chlorophenyl)-2-tetrazol-2-yl)ethyl ester to which no cyclodextrin compound had been added was measured at room temperature.
The calculated saturation solubility values are shown in Table 1, and the same results are shown graphically in FIG. 1.

[2] = Saturation solubility according to pH change; type: physicochemical; conditions: for solubility at 12 h: thermodynamic from solid
Method: The solubility of carbamic acid (R)-1-(2-chlorophenyl)-2-tetrazol-2-yl)ethyl ester in various aqueous (water) solvent conditions was measured: (1) purified water, (2) pH 1 hydrochloric acid solution, and (3) pH 3 to 8 phosphate buffer solution. Specifically, about 50 mg of carbamic acid (R)-1-(2-chlorophenyl)-2-tetrazol-2-yl)ethyl ester was placed in a suitable glass vial and 15 mL of solvent was added. The mixture was slowly stirred at room temperature for 12 hours on a rotary stirrer to reach equilibrium. Two samples for each aqueous solvent were transferred to a microtube, and centrifuged, and the pH was measured by taking the supernatant. After dilution with diluted solution for analysis, the concentration was analyzed using high performance liquid chromatography under the same conditions as in Experimental Example 1 above.

In the case of `NC(=O)O[C@@H](Cn1ncnn1)c1ccccc1Cl` [carbamic acid (R)-1-(2-chlorophenyl)-2-tetrazol-2-yl)ethyl ester], the “Solubility when cyclodextrin compound was added, compared with comparative example without cyclodextrin” value ([1]; Cavitron or Captisol added, in words) is reported as “significantly improved”, the solubility at 6 h ([1]; Captisol 10 % W/V) is reported as 12800 µg/mL (≈ 47.8 mM) and the solubility at 6 h ([1]; Captisol 15 % W/V) is reported as 18000 µg/mL (≈ 67.2 mM). The solubility at 6 h ([1]; Captisol 20 % W/V) was 24500 µg/mL (≈ 91.5 mM), the solubility at 6 h ([1]; Captisol 30 % W/V) was 32500 µg/mL (≈ 121 mM) and the solubility at 6 h ([1]; Captisol 40 % W/V) was 45100 µg/mL (≈ 168 mM). The solubility at 6 h ([1]; Captisol (sulfobutyl ether-β-cyclodextrin sodium salt) 5 % W/V) was 6700 µg/mL, the solubility at 6 h ([1]; Cavitron 10 % W/V) was 13200 µg/mL (≈ 49.3 mM) and the solubility at 6 h ([1]; Cavitron 15 % W/V) was 19800 µg/mL (≈ 74 mM). The solubility at 6 h ([1]; Cavitron 20 % W/V) was 27900 µg/mL (≈ 104 mM), the solubility at 6 h ([1]; Cavitron 30 % W/V) was 38600 µg/mL (≈ 144 mM) and the solubility at 6 h ([1]; Cavitron 40 % W/V) was 49500 µg/mL (≈ 185 mM). The solubility at 6 h ([1]; Cavitron (2-hydroxypropyl-β-cyclodextrin) 5 % W/V) was 5500 µg/mL (≈ 20.5 mM), the solubility ([1]; Captisol column) was 1800 µg/mL (≈ 6.72 mM) and the solubility ([1]; Cavitron column) was 1800 µg/mL (≈ 6.72 mM). For the same compound, the solubility at 12 h ([2]; pH 1 hydrochloric acid solution, pH 1, simulated gastric fluid, pH 1 hydrochloric acid solution, room temperature, read-out: Concentration (saturation solubility), Mean) was 1950 µg/mL (≈ 7.28 mM), the solubility at 12 h ([2]; pH 1 hydrochloric acid solution, pH 1, simulated gastric fluid, pH 1 hydrochloric acid solution, room temperature, read-out: Concentration (saturation solubility), Test solution 1) was 1940 µg/mL (≈ 7.25 mM) and the solubility at 12 h ([2]; pH 1 hydrochloric acid solution, pH 1, simulated gastric fluid, pH 1 hydrochloric acid solution, room temperature, read-out: Concentration (saturation solubility), Test solution 2) was 1970 µg/mL (≈ 7.36 mM). For the same compound, the “Effect of change in pH on solubility” value ([2]; pH 1 to 8 aqueous solvents, in words) was “not greatly affected by the change in pH”, the solubility at 12 h ([2]; pH 3.0 phosphate buffer solution, pH 3, aqueous buffer, pH 3.0 phosphate buffer solution, final pH 3.1, room temperature, read-out: Concentration (saturation solubility), Mean) was 1870 µg/mL (≈ 6.99 mM) and the solubility at 12 h ([2]; pH 3.0 phosphate buffer solution, pH 3, aqueous buffer, pH 3.0 phosphate buffer solution, final pH 3.1, room temperature, read-out: Concentration (saturation solubility), Test solution 1) was 1870 µg/mL (≈ 6.99 mM). It also gave a solubility at 12 h ([2]; pH 3.0 phosphate buffer solution, pH 3, aqueous buffer, pH 3.0 phosphate buffer solution, final pH 3.1, room temperature, read-out: Concentration (saturation solubility), Test solution 2) of 1860 µg/mL (≈ 6.95 mM), a solubility at 12 h ([2]; pH 5.0 phosphate buffer solution, pH 5, aqueous buffer, pH 5.0 phosphate buffer solution, final pH 5.0, room temperature, read-out: Concentration (saturation solubility), Mean) of 1910 µg/mL (≈ 7.14 mM) and a solubility at 12 h ([2]; pH 5.0 phosphate buffer solution, pH 5, aqueous buffer, pH 5.0 phosphate buffer solution, final pH 5.0, room temperature, read-out: Concentration (saturation solubility), Test solution 1) of 1910 µg/mL (≈ 7.14 mM). For the same compound, the solubility at 12 h ([2]; pH 5.0 phosphate buffer solution, pH 5, aqueous buffer, pH 5.0 phosphate buffer solution, final pH 5.0, room temperature, read-out: Concentration (saturation solubility), Test solution 2) was 1910 µg/mL (≈ 7.14 mM), the solubility at 12 h ([2]; pH 6.5 phosphate buffer solution, pH 6.5, aqueous buffer, pH 6.5 phosphate buffer solution, final pH 6.6, room temperature, read-out: Concentration (saturation solubility), Mean) was 1860 µg/mL (≈ 6.95 mM) and the solubility at 12 h ([2]; pH 6.5 phosphate buffer solution, pH 6.5, aqueous buffer, pH 6.5 phosphate buffer solution, final pH 6.6, room temperature, read-out: Concentration (saturation solubility), Test solution 1) was 1860 µg/mL (≈ 6.95 mM). It also gave a solubility at 12 h ([2]; pH 6.5 phosphate buffer solution, pH 6.5, aqueous buffer, pH 6.5 phosphate buffer solution, final pH 6.6, room temperature, read-out: Concentration (saturation solubility), Test solution 2) of 1860 µg/mL (≈ 6.95 mM), a solubility at 12 h ([2]; pH 8.0 phosphate buffer solution, pH 8, aqueous buffer, pH 8.0 phosphate buffer solution, final pH 8.0, room temperature, read-out: Concentration (saturation solubility), Mean) of 1810 µg/mL (≈ 6.76 mM) and a solubility at 12 h ([2]; pH 8.0 phosphate buffer solution, pH 8, aqueous buffer, pH 8.0 phosphate buffer solution, final pH 8.0, room temperature, read-out: Concentration (saturation solubility), Test solution 1) of 1800 µg/mL (≈ 6.72 mM). For the same compound, the solubility at 12 h ([2]; pH 8.0 phosphate buffer solution, pH 8, aqueous buffer, pH 8.0 phosphate buffer solution, final pH 8.0, room temperature, read-out: Concentration (saturation solubility), Test solution 2) was 1820 µg/mL (≈ 6.8 mM), the solubility at 12 h ([2]; purified water, pH 6.2, water, Purified water, final pH 6.2, room temperature, read-out: Concentration (saturation solubility), Mean) was 1800 µg/mL (≈ 6.72 mM) and the solubility at 12 h ([2]; purified water, pH 6.2, water, Purified water, final pH 6.2, room temperature, read-out: Concentration (saturation solubility), Test solution 1) was 1800 µg/mL (≈ 6.72 mM). For the same compound, the solubility at 12 h ([2]; purified water, pH 6.2, water, Purified water, final pH 6.2, room temperature, read-out: Concentration (saturation solubility), Test solution 2) was 1810 µg/mL (≈ 6.76 mM).
